The source made the active and inactive calls.
Key:
[1] = biological target: G-protein coupled receptor 55 (Homo sapiens, UniProt Q9Y2T6); assay: GPR55 antagonists blocking LPI-driven arrestin recruitment, primary screen, imaging, U2OS, beta-arrestin-GFP, LPI agonist (AID 2013); assay type: functional;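 further: antagonist potency measured as reduced agonist-driven arrestin aggregation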
[2] = biological target: Voltage-dependent T-type calcium channel subunit alpha-1H (Homo sapiens, UniProt O95180); assay type: functional;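 further: channel activity triggered by adding a high calcium stimulation buffer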
BJ [3] = assay: cells; assay type: functional, cell-based; details: Homo sapiens
Paired box protein Pax-8 = Paired box protein Pax-8 (Homo sapiens, UniProt Q06710); assay: inhibitors of PAX8-driven TPO luciferase reporter, dose response, RMG-I cells, cherry-pick (AID 687027); assay type: functional, cell-based;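 further: luciferase reporter driven by Pax8 target thyroperoxidase promoter measured by SteadyGlo luminescence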
[4] = cytotoxicity toward DRD oncogenic fibroblasts, dose response, cell-based, non-viral oncogenic, luminescence (AID 1934); assay type: functional; details: Homo sapiens
BJ [5] = assay: cytotoxicity toward BJ-TERT-LT-ST fibroblasts, dose response, cell-based, RAS-independent, luminescence (AID 1935); assay type: functional; details: Homo sapiens;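 further: BJ fibroblasts immortalized with TERT plus LT and ST oncogenes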
[6] = cytotoxicity in HEK-293T cells, dose response, cytotoxicity control for BCR NF-kB inhibitor project, luminescence, B-cell screen hits (AID 489021); assay type: functional, cell-based;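 further: HEK-293T cells carrying an NF-kB luciferase reporter; cells exposed to compound for about 14 hours before viability readout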
[7] = non-specific cell cytotoxicity, dose response, cytotoxicity control for PAX8 inhibitor project, plate reader, dry powder samples (AID 743021); assay type: functional, cell-based
BJ [8] = assay: cytotoxicity toward Ras-transformed BJeLR fibroblasts, dose response, cell-based, alamar blue fluorescence, cherrypicked samples (AID 2631); assay type: functional; details: Homo sapiens;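 further: confirmatory dose-response assay in RAS-dependent BJ fibroblasts engineered with TERT, LT and ST, with cytotoxicity read by fluorescence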
[9] = biological target: T1, Heat shock factor protein 1 (Mus musculus, UniProt P38532); assay: inhibition of MG132-induced HSE-luciferase signal, confirmation, cell-based, NIH3T3, luminescence, dose retest (AID 2382); assay type: functional;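 further: NIH3T3 fibroblasts with HSF1-driven luciferase reporter stressed by proteasome inhibitor MG132; luminescence from HSF1-driven luciferase expression after 8 hours of MG132 stress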
T1 sequence (P38532 whole entry): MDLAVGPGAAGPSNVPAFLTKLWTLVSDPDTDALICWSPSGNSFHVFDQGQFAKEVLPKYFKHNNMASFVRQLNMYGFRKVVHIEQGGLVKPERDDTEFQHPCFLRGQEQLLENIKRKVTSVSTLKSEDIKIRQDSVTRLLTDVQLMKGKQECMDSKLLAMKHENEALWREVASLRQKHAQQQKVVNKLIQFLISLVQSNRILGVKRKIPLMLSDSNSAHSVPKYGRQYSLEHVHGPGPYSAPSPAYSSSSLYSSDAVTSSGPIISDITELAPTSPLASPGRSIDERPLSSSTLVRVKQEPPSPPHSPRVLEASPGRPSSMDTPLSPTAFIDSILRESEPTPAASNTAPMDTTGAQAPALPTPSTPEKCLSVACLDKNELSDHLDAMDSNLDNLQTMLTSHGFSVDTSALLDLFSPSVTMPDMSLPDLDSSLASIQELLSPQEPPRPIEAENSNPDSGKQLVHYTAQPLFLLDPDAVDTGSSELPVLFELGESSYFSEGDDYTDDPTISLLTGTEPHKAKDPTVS

BJ [10] = assay: cytotoxicity toward BJ-TERT fibroblasts, dose response, cell-based, RAS-independent, luminescence (AID 1933); assay type: functional; details: Homo sapiens
cells [11] = assay type: functional, cell-based
cells [12] = assay type: functional, cell-based; remark: listed apart in the source
[13] = biological target: Glyceraldehyde-3-phosphate dehydrogenase (Homo sapiens, UniProt P04406)
[14] = biological target: T2, Alkaline phosphatase, tissue-nonspecific isozyme (Homo sapiens, UniProt P05186); assay: human TNAP enzyme inhibitors, SAR follow-up, biochemical, luminescent, dose response (AID 1056)
T2 sequence (P05186 whole entry): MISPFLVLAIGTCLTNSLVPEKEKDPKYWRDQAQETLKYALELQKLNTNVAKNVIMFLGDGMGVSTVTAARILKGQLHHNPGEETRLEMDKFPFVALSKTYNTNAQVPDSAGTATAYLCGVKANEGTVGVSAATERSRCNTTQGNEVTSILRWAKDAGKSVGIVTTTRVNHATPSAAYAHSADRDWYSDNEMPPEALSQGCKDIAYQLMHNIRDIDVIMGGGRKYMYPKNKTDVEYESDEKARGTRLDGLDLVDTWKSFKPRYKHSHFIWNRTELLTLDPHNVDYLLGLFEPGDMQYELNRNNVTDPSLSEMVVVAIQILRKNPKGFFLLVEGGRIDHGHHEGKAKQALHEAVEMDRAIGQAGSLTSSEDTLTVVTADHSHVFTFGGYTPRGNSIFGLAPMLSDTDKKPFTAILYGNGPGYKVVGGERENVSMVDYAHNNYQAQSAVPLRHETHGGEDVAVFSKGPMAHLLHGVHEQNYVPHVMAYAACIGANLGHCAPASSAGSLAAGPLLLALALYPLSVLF

[15] = biological target: T3, Nucleotide-binding oligomerization domain-containing protein 1 (Homo sapiens, UniProt Q9Y239); assay: NOD1 signaling inhibitors, SAR follow-up, revised (AID 2333); assay type: functional
T3 sequence (Q9Y239 whole entry): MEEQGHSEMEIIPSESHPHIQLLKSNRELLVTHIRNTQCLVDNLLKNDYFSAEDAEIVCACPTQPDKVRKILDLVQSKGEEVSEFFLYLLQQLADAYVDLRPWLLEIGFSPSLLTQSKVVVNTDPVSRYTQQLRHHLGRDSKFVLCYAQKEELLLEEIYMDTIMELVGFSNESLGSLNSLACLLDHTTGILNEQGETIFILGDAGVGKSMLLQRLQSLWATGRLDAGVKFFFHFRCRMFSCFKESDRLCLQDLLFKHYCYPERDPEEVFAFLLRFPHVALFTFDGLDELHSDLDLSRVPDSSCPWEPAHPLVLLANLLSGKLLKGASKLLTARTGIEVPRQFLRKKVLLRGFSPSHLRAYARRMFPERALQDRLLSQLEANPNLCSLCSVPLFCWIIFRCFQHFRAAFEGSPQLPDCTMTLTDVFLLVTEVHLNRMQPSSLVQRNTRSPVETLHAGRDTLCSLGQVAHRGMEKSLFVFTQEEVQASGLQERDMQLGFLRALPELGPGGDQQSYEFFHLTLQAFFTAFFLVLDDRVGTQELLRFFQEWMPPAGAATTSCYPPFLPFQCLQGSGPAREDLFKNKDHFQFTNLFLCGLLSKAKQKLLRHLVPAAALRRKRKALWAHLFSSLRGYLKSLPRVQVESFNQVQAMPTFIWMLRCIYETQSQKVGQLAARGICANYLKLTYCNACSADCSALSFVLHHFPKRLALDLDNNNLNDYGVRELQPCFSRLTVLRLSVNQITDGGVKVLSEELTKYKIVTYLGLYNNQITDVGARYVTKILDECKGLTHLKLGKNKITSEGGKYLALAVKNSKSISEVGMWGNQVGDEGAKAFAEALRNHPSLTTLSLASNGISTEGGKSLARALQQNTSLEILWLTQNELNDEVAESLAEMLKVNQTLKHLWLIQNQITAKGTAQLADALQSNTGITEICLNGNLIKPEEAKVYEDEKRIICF

HEK293 = assay: cells; details: Homo sapiens;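 further: cells exposed to compound for 14 hours overnight before viability readout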
[16] = biological target: Nucleotide-binding oligomerization domain-containing protein 2 (Homo sapiens, UniProt Q9HC29); assay: PubChem AID 2334; assay type: functional
Tumor necrosis factor = Tumor necrosis factor (Homo sapiens, UniProt P01375); assay: TNFa-triggered NF-kB activation inhibitors, SAR follow-up, cell-based, revised (AID 2337); assay type: functional
Troponin, cardiac muscle = Troponin, cardiac muscle (Homo sapiens, UniProt P19429+P45379+P63316); assay: Fluorescence-based biochemical high throughput dose response assay for activators of the calcium sensitivity of cardiac Regulated Thin Filaments (RTF). [Related pubchem assays (depositor defined):AID493008, AID493018, AID504382, AID504383]; assay type: protein-complex assay
[17] = biological target: T4, RNA-binding protein pos-1 (Caenorhabditis elegans, UniProt G5EF15); assay: inhibitors of POS-1/mex-3 RNA binding, dose response, biochemical, fluorescence polarization (AID 1964);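 further: purified POS-1 fused to maltose binding protein made in E. coli; potency of compounds blocking POS-1 binding to fluorescent RNA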
T4 sequence (G5EF15 whole entry): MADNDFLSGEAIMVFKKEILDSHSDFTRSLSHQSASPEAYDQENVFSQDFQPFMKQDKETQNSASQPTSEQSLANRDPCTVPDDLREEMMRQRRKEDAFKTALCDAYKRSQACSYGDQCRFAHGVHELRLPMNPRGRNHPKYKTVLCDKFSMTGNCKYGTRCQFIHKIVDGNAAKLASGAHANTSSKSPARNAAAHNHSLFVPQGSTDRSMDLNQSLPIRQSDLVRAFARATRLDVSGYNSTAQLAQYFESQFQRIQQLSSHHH

[18] = biological target: T5, Zinc finger protein mex-5 (Caenorhabditis elegans, UniProt Q9XUB2); assay: MEX-5/TCR-2 RNA interaction inhibitors, dose response, biochemical, C. elegans, fluorescence polarization (AID 1960)
T5 sequence (Q9XUB2 whole entry): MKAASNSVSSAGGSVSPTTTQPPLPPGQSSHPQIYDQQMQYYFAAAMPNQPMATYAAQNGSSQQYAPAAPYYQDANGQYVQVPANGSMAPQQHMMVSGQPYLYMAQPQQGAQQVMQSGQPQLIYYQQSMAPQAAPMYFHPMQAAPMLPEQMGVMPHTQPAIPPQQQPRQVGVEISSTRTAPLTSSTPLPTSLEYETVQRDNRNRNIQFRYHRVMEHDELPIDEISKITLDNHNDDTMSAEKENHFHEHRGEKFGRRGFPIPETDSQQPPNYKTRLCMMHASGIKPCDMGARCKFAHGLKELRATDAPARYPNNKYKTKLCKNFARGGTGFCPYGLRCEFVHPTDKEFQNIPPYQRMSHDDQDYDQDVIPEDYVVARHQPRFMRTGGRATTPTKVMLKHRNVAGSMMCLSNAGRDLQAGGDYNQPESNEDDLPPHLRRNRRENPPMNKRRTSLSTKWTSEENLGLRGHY

[19] = biological target: FAD-linked sulfhydryl oxidase ALR (Homo sapiens, UniProt P55789); assay: inhibitors of human ALR sulfhydryl oxidase, dose response, biochemical, H2O2 detection, luminescence, cherry-pick (AID 493248)
[20] = biological target: DNA dC->dU-editing enzyme APOBEC-3G (Homo sapiens, UniProt Q9HC16); assay: Dose Response confirmation of small molecule APOBEC3G DNA Deaminase Inhibitors via a fluorescence-based single-stranded DNA deaminase assay. [Related pubchem assays (depositor defined):AID493012, AID493028]; assay type: functional
[21] = biological target: DNA damage-inducible transcript 3 protein (Mus musculus, UniProt P35639); assay type: functional, Cricetulus griseus
X-box-binding protein 1 = biological target: T6, X-box-binding protein 1 (Homo sapiens, UniProt P17861); assay type: functional, Cricetulus griseus;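 further: confirmatory dose-response counter-screen serving a CHOP assay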
T6 sequence (P17861 whole entry): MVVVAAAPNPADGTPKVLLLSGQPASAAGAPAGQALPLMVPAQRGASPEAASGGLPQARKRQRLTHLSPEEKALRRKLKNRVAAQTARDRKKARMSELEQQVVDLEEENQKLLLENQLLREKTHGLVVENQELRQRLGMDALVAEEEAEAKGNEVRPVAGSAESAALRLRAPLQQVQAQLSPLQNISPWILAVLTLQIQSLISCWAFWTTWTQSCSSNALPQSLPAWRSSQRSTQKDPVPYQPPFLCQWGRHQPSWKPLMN

HeLa = assay: HeLa cell cytotoxicity, dose response, cytotoxicity control for MITF activator project, CellTiter-Glo luminescence, cherry-pick samples (AID 540259); assay type: functional, cell-based; details: Homo sapiens
H4 = assay: Luminescence Cell-Based Dose Response HTS to Identify Activators of 5'UTR Stem-Loop Driven Prion Protein mRNA Translation in H4 Neuroglioblastoma Cells. [Related pubchem assays: 1829 (Project Summary), 1814 (Primary HTS)]; assay type: functional; details: Homo sapiens
[22] = Luminescence Cell-Based Dose Response HTS to Identify Activators of Luciferase Translation or Activity in H4 […] Cells. [Related pubchem assays: 1829 (Project Summary), 1814 (Primary HTS)]; assay type: functional

Cc1ccc(CNCc2cc3c(C(C)(C)C)nn(-c4ccccc4)c3[nH]c2=O)cc1
IC50 [1]: 1.92 µM (active)

CCN(CCCNC(=O)CCc1nc(-c2ccc(C)cc2)no1)c1cccc(C)c1
EC50 [2]: 2.54 µM (active)

CCCC(C)NC(=O)c1ccc2[nH]c3c(c2c1)CC(C)CC3 (configuration not stated)
EC50 [2]: 60.1 µM (active)

COC(=O)[C@@H]1Cc2c([nH]c3ccccc23)C(C)(C)N1C(=O)CCl
EC50 (BJ [3]): 3.16 µM (inconclusive) | AC50 (Paired box protein Pax-8): 1.26 µM (active) | EC50 [4]: 2.65 µM (inconclusive) | EC50 (BJ [5]): > 75 µM (inconclusive) | IC50 [6]: > 80 µM (inactive) | AC50 [7]: 3.27 µM (active) | EC50 (BJ [8]): 18.1 µM (active) | EC50 [9]: 4.08 µM (active) | EC50 (BJ [10]): 2.4 µM (inconclusive)

Cc1sc(NC(=O)c2ccco2)c(CN2CCC(C)CC2)c1C
EC50 (cells [11]): > 350 µM (not active) | EC50 [2]: 7.78 µM (active) | EC50 (cells [12]): > 350 µM (not active)

Cn1c(=O)n(C/C=C/c2ccccc2)c(=O)c2c1nc1n2CCCN1c1ccc(F)cc1
IC50 [1]: 0.624 µM (active)

COc1ccc(Br)cc1S(=O)(=O)Nc1ccc2ncccc2c1
IC50 [13]: > 100 µM (not active) | IC50 [14]: > 100 µM (inactive)

CC(C)c1cc(C(C)C)c(S(=O)(=O)Nc2cnc3ccccc3c2)c(C(C)C)c1
IC50 [13]: > 100 µM (not active) | IC50 [14]: > 100 µM (inactive)

O=C(NC1CCCc2c1cnn2-c1ccccc1F)c1cc(-c2ccccc2)n[nH]1 (configuration not stated)
IC50 [15]: 16.9 µM (active) | IC50 (HEK293): > 20 µM (inactive) | IC50 [16]: > 20 µM (inactive) | IC50 (Tumor necrosis factor): 10.7 µM (active)

O=C(NCc1ccc(Cl)cc1)C1CCN(c2cnccn2)CC1
EC50 (Troponin, cardiac muscle): > 71.4 µM (inactive)

CN(C)CCN(C)Cc1c2ccccc2c(CN(C)CCN(C)C)c2ccccc12
EC50 [17]: 12.1 µM (active) | EC50 [18]: 10.2 µM (active) | EC50 (Troponin, cardiac muscle): 34.3 µM (inactive)

Sc1nnc(-c2ccccn2)n1/N=C/c1cccc2ccccc12
AC50 [19]: 10.8 µM (active) | IC50 [20]: 2.35 µM (active)

Cc1n[nH]c(NC=C2C(=O)CC(c3ccco3)CC2=O)c1-c1ccc(Cl)cc1 (configuration not stated)
Absolute IC50 (CHOP) [21]: 10 µM | Absolute IC50 (XBP1) (X-box-binding protein 1): 10 µM

Cc1cc2c([nH]c3ccccc32)c2c1OC(C)(C)C=C2 [GRINIMIBINE]
AC50 (HeLa): 41.3 µM (active) | EC50 (H4): 20.6 µM (active) | Absolute IC50 (CHOP) [21]: 10 µM | Absolute IC50 (XBP1) (X-box-binding protein 1): 10 µM | EC50 [22]: 27.7 µM (active)

— ChEMBL document CHEMBL1201862, “PubChem BioAssay data set” (2004)
